Measurements taken from PubChem BioAssay AID248 (DTP/NCI, 2004).
Several values for one entry are separate records, joined by “and”; a condition that tells them apart may be missing. Equal values may be shown once. Inconclusive results and toxic doses are left out. Rule as the data show it: active = T/C of 150% or more; inactive = T/C below 125%.

System: L1210 leukemia ip in BDF1 mice, survival T/C
Assay: NCI In Vivo Anticancer Drug Screen. Data for tumor model L1210 Leukemia (intraperitoneal) in B6D2F1 (BDF1) mice
Settings: endpoint: mean survival time, higher = longer survival
Outline: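 Transplanted-tumor mice were given test agent; controls received vehicle only. Survival readings from the two groups were divided (treated over control).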

[1] = dose: 12.5 mg/kg/injection, schedule: Q04DX003 (ip), vehicle: saline
[2] = dose: 25.0 mg/kg/injection, schedule: Q04DX003 (ip), vehicle: saline
[3] = dose: 50.0 mg/kg/injection, schedule: Q01DX009 (ip), vehicle: saline with Tween-80
[4] = dose: 100.0 mg/kg/injection, schedule: Q01DX009 (ip), vehicle: saline with Tween-80
[5] = dose: 100.0 mg/kg/injection, schedule: Q01DX001 (ip), vehicle: Klucel (hydroxypropylcellulose) (HPC)
[6] = dose: 200.0 mg/kg/injection, schedule: Q01DX001 (ip), vehicle: Klucel (hydroxypropylcellulose) (HPC)
[7] = dose: 400.0 mg/kg/injection, schedule: Q01DX001 (ip), vehicle: Klucel (hydroxypropylcellulose) (HPC)
[8] = dose: 100.0 mg/kg/injection, schedule: Q04DX003 (ip), vehicle: Klucel (hydroxypropylcellulose) (HPC)
[9] = dose: 200.0 mg/kg/injection, schedule: Q04DX003 (ip), vehicle: Klucel (hydroxypropylcellulose) (HPC)
[10] = dose: 400.0 mg/kg/injection, schedule: Q04DX003 (ip), vehicle: Klucel (hydroxypropylcellulose) (HPC)
[11] = dose: 100.0 mg/kg/injection, schedule: Q01DX009 (ip), vehicle: Klucel (hydroxypropylcellulose) (HPC)
[12] = dose: 200.0 mg/kg/injection, schedule: Q01DX009 (ip), vehicle: Klucel (hydroxypropylcellulose) (HPC)
[13] = dose: 400.0 mg/kg/injection, schedule: Q01DX009 (ip), vehicle: Klucel (hydroxypropylcellulose) (HPC)
[14] = dose: 100.0 mg/kg/injection, schedule: Q01DX001 (ip), vehicle: saline
[15] = dose: 200.0 mg/kg/injection, schedule: Q01DX001 (ip), vehicle: saline
[16] = dose: 100.0 mg/kg/injection, schedule: Q01DX009 (ip), vehicle: saline

Measured: T/C

NNC12CC3CC(CC(C3)C1)C2
inactive: dose: 1.56 mg/kg/injection, schedule: Q01DX009 (ip), vehicle: saline 100 % of control | dose: 3.12 mg/kg/injection, schedule: Q01DX009 (ip), vehicle: saline 100 % of control | dose: 6.25 mg/kg/injection, schedule: Q01DX009 (ip), vehicle: saline 100 % of control | dose: 12.5 mg/kg/injection, schedule: Q01DX009 (ip), vehicle: saline 110 % of control and 90 % of control | [1] 105 % of control | [2] 118 % of control | dose: 50.0 mg/kg/injection, schedule: Q04DX003 (ip), vehicle: saline 96 % of control

CC/C=C/N1CCCCC1
inactive: dose: 25.0 mg/kg/injection, schedule: Q01DX009 (ip), vehicle: saline with Tween-80 97 % of control | [3] 94 % of control | [4] 113 % of control and 91 % of control

CCCCCCCCCCCCCCSCCCCCCSCCCCCCCCCCCCCC
inactive: [5] 98 % of control | [6] 93 % of control | [7] 94 % of control

Cc1cc[n+](Cc2ccccc2)cc1
inactive: [1] 96 % of control | [2] 90 % of control

COC1c2ccccc2C=CN1c1ccc([N+](=O)[O-])cc1[N+](=O)[O-] (stereo not drawn)
inactive: [8] 110 % of control | [9] 104 % of control | [10] 108 % of control

CC(C)(C)C1CCC(NC(=O)c2ccccc2)CC1 (stereo not drawn)
inactive: [11] 108 % of control | [8] 102 % of control | [12] 109 % of control | [9] 98 % of control | [13] 86 % of control | [10] 100 % of control

O=S(=O)(O)OCc1cc(O)c(OS(=O)(=O)O)c(Br)c1Br
inactive: dose: 100.0 mg/kg/injection, schedule: Q01DX001 (ip), vehicle: saline with Tween-80 97 % of control | dose: 200.0 mg/kg/injection, schedule: Q01DX001 (ip), vehicle: saline with Tween-80 102 % of control | dose: 400.0 mg/kg/injection, schedule: Q01DX001 (ip), vehicle: saline with Tween-80 94 % of control

Cc1ccc(NC(N)=O)cc1Cl
inactive: [11] 105 % of control | [12] 107 % of control | [13] 102 % of control

CN(N=O)C(=O)NCCSc1ncnc2nc[nH]c12
inactive: dose: 6.25 mg/kg/injection, schedule: Q01DX Z (ip), vehicle: carboxymethylcellulose (CMC) 103 % of control | dose: 12.5 mg/kg/injection, schedule: Q01DX Z (ip), vehicle: carboxymethylcellulose (CMC) 95 % of control | dose: 25.0 mg/kg/injection, schedule: Q01DX Z (ip), vehicle: carboxymethylcellulose (CMC) 107 % of control | dose: 50.0 mg/kg/injection, schedule: Q01DX Z (ip), vehicle: carboxymethylcellulose (CMC) 119 % of control

O=c1c2ccccc2[nH]c2ccccc12
inactive: dose: 50.0 mg/kg/injection, schedule: Q04DX003 (ip), vehicle: Klucel (hydroxypropylcellulose) (HPC) 103 % of control | [5] 95 % of control | dose: 100.0 mg/kg/injection, schedule: Q01DX Z (ip), vehicle: carboxymethylcellulose (CMC) 96 % of control | [8] 101 % of control | [6] 98 % of control | dose: 200.0 mg/kg/injection, schedule: Q01DX Z (ip), vehicle: carboxymethylcellulose (CMC) 103 % of control | [9] 106 % of control and 97 % of control | [7] 95 % of control | dose: 400.0 mg/kg/injection, schedule: Q01DX Z (ip), vehicle: carboxymethylcellulose (CMC) 105 % of control | [10] 103 % of control and 96 % of control

[B]N1C(C)=CC=CC1C (stereo not drawn)
inactive: [3] 92 % of control | [4] 92 % of control | dose: 200.0 mg/kg/injection, schedule: Q01DX009 (ip), vehicle: saline with Tween-80 89 % of control

O=C(O)C1CC12c1ccccc1-c1ccccc12 (stereo not drawn)
inactive: [14] 92 % of control | [15] 95 % of control

COC(=O)C1=C(O)CN(C)C1=O
inactive: dose: 12.5 mg/kg/injection, schedule: Q01DX001 (ip), vehicle: saline 98 % of control | dose: 25.0 mg/kg/injection, schedule: Q01DX001 (ip), vehicle: saline 93 % of control | dose: 25.0 mg/kg/injection, schedule: Q01DX009 (ip), vehicle: saline 101 % of control | dose: 50.0 mg/kg/injection, schedule: Q01DX001 (ip), vehicle: saline 91 % of control | dose: 50.0 mg/kg/injection, schedule: Q01DX009 (ip), vehicle: saline 103 % of control | [14] 86 % of control | [16] 96 % of control | dose: 150.0 mg/kg/injection, schedule: Q01DX009 (ip), vehicle: saline 94 % of control

CN1C(=O)C2C=C(Cl)C1c1ccccc12 (stereo not drawn)
inactive: dose: 100.0 mg/kg/injection, schedule: Q01DX001 (ip), vehicle: other 102 % of control | dose: 200.0 mg/kg/injection, schedule: Q01DX001 (ip), vehicle: other 94 % of control | dose: 400.0 mg/kg/injection, schedule: Q01DX001 (ip), vehicle: other 110 % of control

CCOC(=O)c1ccc(Nc2nnc(-c3c(OC)cc(OC)cc3OC)s2)cc1
inactive: dose: 100.0 mg/kg/injection, schedule: Q04DX002 (ip), vehicle: saline with Tween-80 93 % of control | dose: 200.0 mg/kg/injection, schedule: Q04DX002 (ip), vehicle: saline with Tween-80 104 % of control | dose: 400.0 mg/kg/injection, schedule: Q04DX002 (ip), vehicle: saline with Tween-80 101 % of control

CN(C)CCSC1=CC(=O)c2ccccc2C1=O
inactive: dose: 0.78 mg/kg/injection, schedule: Q01DX009 (ip), vehicle: water 91 % of control | dose: 1.56 mg/kg/injection, schedule: Q01DX009 (ip), vehicle: water 92 % of control

COc1cc(C)c2c([N+](=O)[O-])cc([N+](=O)[O-])c(OC)c2n1
inactive: dose: 75.0 mg/kg/injection, schedule: Q01DX009 (ip), vehicle: Klucel (hydroxypropylcellulose) (HPC) 98 % of control | [8] 106 % of control | dose: 150.0 mg/kg/injection, schedule: Q01DX009 (ip), vehicle: Klucel (hydroxypropylcellulose) (HPC) 101 % of control | [9] 93 % of control | dose: 300.0 mg/kg/injection, schedule: Q01DX009 (ip), vehicle: Klucel (hydroxypropylcellulose) (HPC) 95 % of control | [10] 103 % of control

Cc1cc(C)c(NC(N)=S)cc1C
inactive: dose: 100.0 mg/kg/injection, schedule: Q04DX002 (ip), vehicle: Klucel (hydroxypropylcellulose) (HPC) 92 % of control | dose: 200.0 mg/kg/injection, schedule: Q04DX002 (ip), vehicle: Klucel (hydroxypropylcellulose) (HPC) 94 % of control

S=P(Nc1ccccc1)(Nc1ccccc1)Oc1cc(Cl)c(Cl)cc1Cl
inactive: [14] 92 % of control | [15] 93 % of control | dose: 400.0 mg/kg/injection, schedule: Q01DX001 (ip), vehicle: saline 92 % of control

N=Cc1c(O)[nH]c(=O)[nH]c1=O
inactive: [16] 95 % of control | dose: 100.0 mg/kg/injection, schedule: Q04DX003 (ip), vehicle: saline 97 % of control | dose: 200.0 mg/kg/injection, schedule: Q01DX009 (ip), vehicle: saline 90 % of control | dose: 200.0 mg/kg/injection, schedule: Q04DX003 (ip), vehicle: saline 93 % of control | dose: 400.0 mg/kg/injection, schedule: Q01DX009 (ip), vehicle: saline 91 % of control | dose: 400.0 mg/kg/injection, schedule: Q04DX003 (ip), vehicle: saline 95 % of control

Clc1ccc(N=Cc2ccc3c(c2)OCO3)c(Cl)c1
inactive: [11] 94 % of control | [12] 93 % of control | [13] 96 % of control

C#CC(C)OCC(C)OC (stereo not drawn)
inactive: dose: 25.0 mg/kg/injection, schedule: Q01DX009 (ip), vehicle: acetone 97 % of control | dose: 50.0 mg/kg/injection, schedule: Q01DX009 (ip), vehicle: acetone 103 % of control | dose: 100.0 mg/kg/injection, schedule: Q04DX003 (ip), vehicle: acetone 102 % of control

O=C1C=CC(=O)N1c1ccc(O)cc1
inactive: dose: 1.25 mg/kg/injection, schedule: Q01DX009 (ip), vehicle: Klucel (hydroxypropylcellulose) (HPC) 105 % of control | dose: 2.5 mg/kg/injection, schedule: Q01DX009 (ip), vehicle: Klucel (hydroxypropylcellulose) (HPC) 107 % of control | dose: 2.5 mg/kg/injection, schedule: Q04DX003 (ip), vehicle: Klucel (hydroxypropylcellulose) (HPC) 96 % of control | dose: 5.0 mg/kg/injection, schedule: Q01DX009 (ip), vehicle: Klucel (hydroxypropylcellulose) (HPC) 102 % of control | dose: 5.0 mg/kg/injection, schedule: Q04DX003 (ip), vehicle: Klucel (hydroxypropylcellulose) (HPC) 95 % of control
